Test results: patent US12180207B2 (ARRAY BIOPHARMA INC., priority 2018, dated 2024)

Experiments:
[1] = target: dephosphorylated FGFR1 (SEQ ID NO: 1, amino acids 458 to 765) (Homo sapiens (Human), UniProt P11362); experiment: FGFR enzyme binding assay (HTRF tracer displacement), FGFR1; details: 5 nM dephosphorylated FGFR1, average of multiple determinations if made
Summary of the method: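 Kinase and tracer were incubated with compound for 60 minutes at 22° C. Tracer displacement was then measured by HTRF, and results were expressed as POC with 1 μM control inhibitor defining full displacement.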

[2] = target: HEK-293 cells transfected with dox-inducible human wild type FGFR1 (Homo sapiens (Human), UniProt P11362); experiment: FGFR1 pERK cell assay; type: cell-based; details: HEK-293 dox-inducible FGFR1, 1 hour compound, 100 ng/ml FGF-acidic; maximum concentration 5 μM
Summary of the method: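 In HEK-293 cells with dox-induced human wild-type FGFR1, compounds (1:3 dilutions, top 5 μM final) were applied 1 h at 37°C before 5 min stimulation with 100 ng/ml FGF-acidic. Phospho-ERK1/2 measured by MSD sandwich immunoassay; IC50 from 4-parameter fit of POC versus vehicle and control compound.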

[3] = target: T1, HEK-293 cells transfected with dox-inducible human wild type FGFR3 (Homo sapiens (Human), UniProt P22607); experiment: FGFR3 pFGFR cell assay (ELISA); type: cell-based; details: HEK-293 dox-inducible FGFR3, 1 hour compound, 100 ng/ml FGF-acidic
Summary of the method: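 Doxycycline-induced (1 μg/ml) HEK-293 cells expressing wild-type human FGFR3, treated 1 h with compound (1:3 series, top final 5 μM), then stimulated 5 min with 100 ng/ml FGF-acidic. Phospho-FGFR3 measured by ELISA (total FGFR3 capture, phosphotyrosine detection, OD 450 nm); IC50 from 4-parameter fit of POC values.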

[4] = target: FGFR1 (SEQ ID NO: 1, amino acids 458-765) (Homo sapiens (Human), UniProt P11362); experiment: LC/MS FGFR1 kobs assay (covalent protein modification); type: binding; details: 500 nM FGFR1, 3 μM compound
Summary of the method: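 Covalent labeling of FGFR1 kinase domain (aa 458-765) tracked over time by intact-protein LC/MS after formic acid quench. kobs derived by fitting DMSO-normalized percent unmodified FGFR1 to an exponential decay model.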

[5] = target: T1, HEK-293 cells transfected with dox-inducible human wild type FGFR3; experiment: FGFR3 pERK cell assay; type: cell-based; details: HEK-293 dox-inducible FGFR3, 1 hour compound, 100 ng/ml FGF-acidic; maximum concentration 5 μM
Summary of the method: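 Doxycycline-induced cells preincubated 1 h at 37 °C with compound (1:3 dilutions, top 5 μM final), then stimulated 5 min with 100 ng/ml FGF-acidic. Lysate phospho-ERK1/2 measured by MSD sandwich assay; IC50 at 50 POC from 4-parameter fit, normalised to no-compound and control-compound wells.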

Sequence of dephosphorylated FGFR1 (SEQ ID NO: 1, amino acids 458 to 765) (P11362 458-765): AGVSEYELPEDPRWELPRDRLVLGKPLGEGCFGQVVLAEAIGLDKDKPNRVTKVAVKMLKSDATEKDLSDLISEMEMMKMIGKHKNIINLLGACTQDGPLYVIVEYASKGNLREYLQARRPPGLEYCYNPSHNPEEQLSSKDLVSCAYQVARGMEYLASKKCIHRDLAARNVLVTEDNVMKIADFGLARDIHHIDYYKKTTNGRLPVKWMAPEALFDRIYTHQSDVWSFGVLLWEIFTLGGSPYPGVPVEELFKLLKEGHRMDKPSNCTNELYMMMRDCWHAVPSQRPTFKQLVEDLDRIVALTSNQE
Sequence of FGFR1 (SEQ ID NO: 1, amino acids 458-765) (P11362 458-765): as above
T1 sequence (P22607 23-806): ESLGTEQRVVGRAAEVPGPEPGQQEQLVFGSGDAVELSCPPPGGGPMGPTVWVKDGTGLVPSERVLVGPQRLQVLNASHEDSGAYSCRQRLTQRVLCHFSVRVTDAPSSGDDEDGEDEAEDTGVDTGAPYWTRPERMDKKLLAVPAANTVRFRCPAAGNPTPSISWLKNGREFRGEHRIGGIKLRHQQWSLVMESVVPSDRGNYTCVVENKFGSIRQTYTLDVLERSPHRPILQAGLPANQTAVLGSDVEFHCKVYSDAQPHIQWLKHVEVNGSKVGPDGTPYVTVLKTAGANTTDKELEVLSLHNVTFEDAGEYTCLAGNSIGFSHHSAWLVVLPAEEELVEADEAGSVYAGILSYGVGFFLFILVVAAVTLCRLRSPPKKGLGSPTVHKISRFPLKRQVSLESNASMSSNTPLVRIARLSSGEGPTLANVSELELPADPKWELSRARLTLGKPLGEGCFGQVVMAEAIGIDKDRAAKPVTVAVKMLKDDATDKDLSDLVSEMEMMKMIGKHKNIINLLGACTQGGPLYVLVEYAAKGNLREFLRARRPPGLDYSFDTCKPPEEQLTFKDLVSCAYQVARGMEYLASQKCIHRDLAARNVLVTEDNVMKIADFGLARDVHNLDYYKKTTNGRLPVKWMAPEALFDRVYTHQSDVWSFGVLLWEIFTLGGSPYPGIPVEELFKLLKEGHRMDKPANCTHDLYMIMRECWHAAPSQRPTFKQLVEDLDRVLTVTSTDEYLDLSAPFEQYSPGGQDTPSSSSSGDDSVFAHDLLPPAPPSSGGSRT
Sequence of HEK-293 cells transfected with dox-inducible human wild type FGFR1 (P11362 22-822): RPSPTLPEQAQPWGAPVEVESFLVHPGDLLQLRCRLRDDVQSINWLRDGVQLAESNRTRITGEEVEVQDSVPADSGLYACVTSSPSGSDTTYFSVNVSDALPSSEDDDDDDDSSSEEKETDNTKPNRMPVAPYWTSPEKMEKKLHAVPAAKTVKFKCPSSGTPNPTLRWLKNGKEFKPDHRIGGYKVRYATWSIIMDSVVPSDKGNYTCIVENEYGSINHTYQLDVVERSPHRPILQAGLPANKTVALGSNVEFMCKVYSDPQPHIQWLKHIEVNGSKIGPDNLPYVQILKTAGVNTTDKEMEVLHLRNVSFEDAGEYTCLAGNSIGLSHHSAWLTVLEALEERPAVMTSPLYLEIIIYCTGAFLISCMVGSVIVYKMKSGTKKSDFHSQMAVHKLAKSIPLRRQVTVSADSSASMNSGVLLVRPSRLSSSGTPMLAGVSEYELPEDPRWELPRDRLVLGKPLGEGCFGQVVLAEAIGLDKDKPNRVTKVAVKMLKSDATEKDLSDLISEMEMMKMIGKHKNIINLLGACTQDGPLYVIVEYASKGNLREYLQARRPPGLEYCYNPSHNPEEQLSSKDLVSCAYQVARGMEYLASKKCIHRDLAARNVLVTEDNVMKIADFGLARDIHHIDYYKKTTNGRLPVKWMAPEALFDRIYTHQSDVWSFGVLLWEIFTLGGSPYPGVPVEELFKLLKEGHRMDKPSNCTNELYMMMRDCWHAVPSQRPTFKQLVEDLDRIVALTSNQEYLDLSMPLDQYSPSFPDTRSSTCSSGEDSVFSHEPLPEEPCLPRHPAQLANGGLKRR

IC50 [1] [nM]	IC50 [2] [nM]	IC50 [3] [nM]	FGFR1 Enz kobs [4] [min⁻¹]	IC50 [5] [nM]	SMILES
374	3360	814	0.00034	853	C=CC(=O)N1CCC(C(=O)N2CCC(n3ncc(-c4cc(OC)c5c(C#N)cnn5c4)c3C)CC2)CC1 [Example 82, 6-(1-(1-(1-acryloylpiperidine-4-carbonyl)piperidin-4-yl)-5-methyl-1H-pyrazol-4-yl)-4-methoxypyrazolo[1,5-a]pyridine-3-carbonitrile]
346	4500	336	0.00145	450	C=CC(=O)N1CC(C(=O)N2CCC(n3cc(-c4cc(OC)c5c(C#N)cnn5c4)c(C)n3)CC2)C1 [Example 94, 6-(1-(1-(1-acryloylazetidine-3-carbonyl)piperidin-4-yl)-3-methyl-1H-pyrazol-4-yl)-4-methoxypyrazolo[1,5-a]pyridine-3-carbonitrile]
26	247	15	0.00146	26	C=CC(=O)N1CCC(C#N)(C(=O)N2CCC(n3cc(-c4cc(OC)c5c(C#N)cnn5c4)cn3)CC2)C1 (centres unmarked) [Example 31, 6-(1-(1-(1-acryloyl-3-cyanopyrrolidine-3-carbonyl)piperidin-4-yl)-1H-pyrazol-4-yl)-4-methoxypyrazolo[1,5-a]pyridine-3-carbonitrile]
98	381	64	0.00277	71	C=CC(=O)Nc1ccc(C(=O)N2CC[C@@H](n3cc(-c4cc(OC)c5c(C#N)cnn5c4)cn3)C2)cc1 [Example 55, (R)-N-(4-(3-(4-(3-cyano-4-methoxypyrazolo[1,5-a]pyridin-6-yl)-1H-pyrazol-1-yl)pyrrolidine-1-carbonyl)phenyl)acrylamide]
61	91	10	0.00254	12	C=CC(=O)N1CC(OC)(C(=O)N2CCC(n3cc(-c4cc(OC)c5c(C#N)cnn5c4)cn3)CC2)C1 [Example 41, 6-(1-(1-(1-acryloyl-3-methoxyazetidine-3-carbonyl)piperidin-4-yl)-1H-pyrazol-4-yl)-4-methoxypyrazolo[1,5-a]pyridine-3-carbonitrile]
14	134	24		19	C=CS(=O)(=O)Nc1cccc(C(=O)N2CCC(n3cc(-c4cc(OC)c5c(C#N)cnn5c4)cn3)CC2)c1 [Example 188, N-(3-(4-(4-(3-cyano-4-methoxypyrazolo[1,5-a]pyridin-6-yl)-1H-pyrazol-1-yl)piperidine-1-carbonyl)phenyl)eth-enesulfonamide]
37		32	0.00423		C=CS(=O)(=O)N[C@H]1CC[C@H](C(=O)N2CCC(n3cc(-c4cc(OC)c5c(C#N)cnn5c4)cn3)CC2)C1 [Example 190, N-((1S,3S)-3-(4-(4-(3-cyano-4-methoxypyrazolo[1,5-a]pyridin-6-yl)-1H-pyrazol-1-yl)piperidine-1-carbonyl)cyclopentyl)-ethenesulfonamide]
115		667	0.00106		C=CC(=O)N1CC(C(=O)N2CC[C@@H](n3cc(-c4cc(OC)c5c(C#N)cnn5c4)cn3)C2)C1 [Example 59, (R)-6-(1-(1-(1-acryloylazetidine-3-carbonyl)pyrrolidin-3-yl)-1H-pyrazol-4-yl)-4-methoxypyrazolo[1,5-a]pyridine-3-carbonitrile]
38		16	0.00138		C=CC(=O)N1CC(CC)(C(=O)N2CCC(n3cc(-c4cc(OC)c5c(C#N)cnn5c4)cn3)CC2)C1 [Example 40, 6-(1-(1-(1-acryloyl-3-ethylazetidine-3-carbonyl)piperidin-4-yl)-1H-pyrazol-4-yl)-4-methoxypyrazolo[1,5-a]pyridine-3-carbonitrile]
112		87	0.00187		C=CC(=O)Nc1cccc(C(=O)N2CCC(n3cc(-c4cc(OC)c5c(C#N)cnn5c4)cn3)CC2)c1 [Example 22, N-(3-(4-(4-(3-cyano-4-methoxypyrazolo[1,5-a]pyridin-6-yl)-1H-pyrazol-1-yl)piperidine-1-carbonyl)phenyl)acrylamide]
59	363	37	0.00127	43	C=CC(=O)N1CC(C(=O)N2CCC(n3cc(-c4cc(OC)c5c(C#N)cnn5c4)cn3)CC2)C1 [Example 36, 6-(1-(1-(1-acryloylazetidine-3-carbonyl)piperidin-4-yl)-1H-pyrazol-4-yl)-4-methoxypyrazolo[1,5-a]pyridine-3-carbonitrile]
43	631	31	0.00113	77	C=CC(=O)N1CC(C(=O)N2CCC(n3cc(-c4cc(OC)c5c(C#N)cnn5c4)cn3)CC2)C1C (centres unmarked) [Example 42, 6-(1-(1-(1-acryloyl-2-methylazetidine-3-carbonyl)piperidin-4-yl)-1H-pyrazol-4-yl)-4-methoxypyrazolo[1,5-a]pyridine-3-carbonitrile]
57		40	0.00085		C=CC(=O)N1CC2(CCC(C(=O)N3CCC(n4cc(-c5cc(OC)c6c(C#N)cnn6c5)cn4)CC3)CC2)C1 [Example 21, 6-(1-(1-(2-acryloyl-2-azaspiro[3.5]nonane-7-carbonyl)piperidin-4-yl)-1H-pyrazol-4-yl)-4-methoxypyrazolo[1,5-a]pyridine-3-carbonitrile]
147		35	0.00457		C=CC(=O)Nc1ccc(C(=O)N2CC[C@H](n3cc(-c4cc(OC)c5c(C#N)cnn5c4)cn3)C2)cc1OC [Example 71, (S)-N-(4-(3-(4-(3-cyano-4-methoxypyrazolo[1,5-a]pyridin-6-yl)-1H-pyrazol-1-yl)pyrrolidine-1-carbonyl)-2-methoxyphenyl)acryla72 mide]
431		90	0.00247		C=CC(=O)Nc1ccc(C(=O)N2CCC[C@@H](n3cc(-c4cc(OC)c5c(C#N)cnn5c4)cn3)C2)cc1 [Example 23, (R)-N-(4-(3-(4-(3-cyano-4-methoxypyrazolo[1,5-a]pyridin-6-yl)-1H-pyrazol-1-yl)piperidine-1-carbonyl)phenyl)acrylamide]
103		20	0.00583		C=CS(=O)(=O)N[C@@H]1CC[C@H](C(=O)N2CCC(n3cc(-c4cc(OC)c5c(C#N)cnn5c4)cn3)CC2)C1 [Example 191, N-((1R,3S)-3-(4-(4-(3-cyano-4-methoxypyrazolo[1,5-a]pyridin-6-yl)-1H-pyrazol-1-yl)piperidine-1-carbonyl)cyclopentyl)-ethenesulfonamide]
350		83	0.00103		C=CC(=O)Nc1ccccc1C(=O)N1CCC[C@@H](n2cc(-c3cc(OC)c4c(C#N)cnn4c3)cn2)C1 [Example 25, (R)-N-(2-(3-(4-(3-cyano-4-methoxypyrazolo[1,5-a]pyridin-6-yl)-1H-pyrazol-1-yl)piperidine-1-carbonyl)phenyl)acrylamide]
186		117	0.00086		C=CC(=O)N1CC(CN2CC(n3cc(-c4cc(OC)c5c(C#N)cnn5c4)cn3)C2)C1 [Example 81, 6-(1-(1-((1-acryloylazetidin-3-yl)methyl)azetidin-3-yl)-1H-pyrazol-4-yl)-4-methoxypyrazolo[1,5-a]pyridine-3-carbonitrile]

SMILES	IC50 [1] [nM]	IC50 [2] [nM]	IC50 [3] [nM]	FGFR1 Enz kobs [4] [min⁻¹]	IC50 [5] [nM]
C=CC(=O)N1C2CC1CN(C(=O)N1CCC(n3cc(-c4cc(OC)c5c(C#N)cnn5c4)cn3)CC1)C2 [Example 1, 6-(1-(1-(6-acryloyl-3,6-diazabicyclo[3.1.1]heptane-3-carbonyl)piperidin-4-yl)-1H-pyrazol-4-yl)-4-methoxypyrazolo[1,5-a]pyridine-3-carbonitrile]	50	525	26	0.00122	86
